Among the data in paper PMC6934184, “Selective DNA-PKcs inhibition extends the therapeutic index of localized radiotherapy and chemotherapy” (The Journal of Clinical Investigation, 2019) are inhibition values, retold here.

The inhibition is the change of the read-out against control, counted positive when it falls. A low value points to little suppression.

This assay concerns the target T1, FRK (PTK5) (Homo sapiens, UniProt P42685).
T1 construct: purchased Thermo Fisher Scientific (Life Technologies) SelectScreen
The assay is described as follows: SelectScreen Z'LYTE. In kind it is biochemical. In short, it runs like this: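 NU5455 was profiled across the SelectScreen Broad panel of kinase activity and binding assays. Z'LYTE reactions such as CSF1R ran at apparent Km ATP, while the Adapta CAMK1 assay used ATP listed as 10. Values are given as percent.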

T1 sequence (P42685 whole entry): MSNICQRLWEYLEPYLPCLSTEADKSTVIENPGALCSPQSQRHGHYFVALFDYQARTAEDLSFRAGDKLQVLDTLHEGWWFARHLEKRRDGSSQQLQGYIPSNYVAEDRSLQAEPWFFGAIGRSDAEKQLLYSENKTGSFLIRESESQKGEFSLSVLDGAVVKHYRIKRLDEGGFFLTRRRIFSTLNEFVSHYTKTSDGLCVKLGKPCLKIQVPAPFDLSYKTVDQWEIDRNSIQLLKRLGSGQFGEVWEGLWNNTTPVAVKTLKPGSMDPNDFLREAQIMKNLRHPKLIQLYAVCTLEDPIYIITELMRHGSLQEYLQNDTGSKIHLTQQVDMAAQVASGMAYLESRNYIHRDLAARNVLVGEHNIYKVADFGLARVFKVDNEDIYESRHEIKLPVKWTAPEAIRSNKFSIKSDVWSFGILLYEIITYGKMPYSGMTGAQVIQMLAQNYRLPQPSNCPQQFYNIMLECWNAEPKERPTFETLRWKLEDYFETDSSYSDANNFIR

`CN(C(=O)CN1CCOCC1)c1ccc2sc3c(-c4cccc5c(=O)cc(N6CC7CCC(C6)O7)oc45)cccc3c2c1` [NU5455] returned an inhibition at 1 µM of 3.4%.
